# Earlier results in publication PMC6422671 (British Journal of Clinical Pharmacology, 2019).
# Experiments:
# [1] = parameters: method as in E Michaëlsson et al., manuscript in preparation; settings: ref E Michaëlsson et al., manuscript in preparation; cited from earlier work
# [2] = tested on: myeloperoxidase; parameters: method as in E Michaëlsson et al., manuscript in preparation; settings: in vitro, unpublished; ref E Michaëlsson et al., manuscript in preparation; cited from earlier work
smiles,measurement,setting,value
C[C@@H](N)c1cc(Cl)ccc1Cn1c(=S)[nH]c(=O)c2[nH]ccc21 [AZD4831],human plasma protein binding,[1],65%
same,inhibition of oxidation of xanthine and uric acid by myeloperoxidase,[2],inhibits
